Experiment [1] concerns Clinch River samples (naturally-occurring photosynthetic organisms). Kind of experiment: Toxic agent detection by fluorescence induction, Clinch River samples. The experiment is classed as cell-based. On the procedure: (§1) Fluorescence induction data set of normal primary-source drinking water samples as well as samples exposed to four different toxic agents at different concentrations were collected. The control and toxic-agent-exposed fluorescence induction data were taken every 5 minutes after the dark adaptation for 15 minutes. • 20 μM DCMU, • 5 mM/10 mM KCN, • 40 μM/60 μM MPt, and • 225 μM Paraquat. Experiment 1—Toxic Agent Detection
(§2) The objective of the first experiment performed was to evaluate the performance of the inventive methodology in detecting the presence of toxic agents. FIGS. 12-23 show the extracted features (including PSII, amplitude statistics, and wavelet coefficient statistical features) of each specific toxic agent as functions of time. The toxic agents were added into the samples at time 0, therefore, the signals with negative time index correspond to the control data and the signals during the positive time period are the agent-exposed data collected from either the Clinch River samples or the lab-grown Chlamydomonas reinhardtii samples. At each time moment, three samples were collected and feature values calculated. The mean and standard deviation of these three values are used to illustrate the performance curve at that time moment. To examine the change of feature values over time, the signal collected at time 0 as reference was chosen and yield at each time moment calculated (feature at time t−feature at time 0)/feature at time 0. The following notations are used to describe these performance curves: • μc(t), σc(t): the mean and the standard deviation of the feature values derived from the three control samples collected at moment t (with a negative time index) • μe(t), σe(t): the mean and the standard deviation of the feature values derived from the three exposure samples collected at moment t (with a positive time index)
(§3) In order to quantitatively evaluate the effectiveness of each feature in differentiating between the control and the exposure signals of different toxic agents, two metrics are introduced: the Fisher criterion and the average confidence level. The Fisher criterion originates from pattern classification (Duda, et al., 2001) where a linear projection is pursued in order to best separate two classes. In this work, the definition of Fisher criterion is used to quantify different performance curves in differentiating between the control and the exposure signals. In general, the Fisher criterion looks for the feature that maximizes the difference between the mean value of feature derived from the control and the exposed signal while minimizing the variance among them, as formulated below: […]
(§4) Table 1 lists the value of the Fisher criterion to evaluate the effect of using different features for agent detection. In both Table 1 and Table 2 “Clinch” refers to Clinch River samples and “Chlamy” to lab-grown Chlamydomonas reinhardtii samples. It can be seen from Table 1 below that the first-order amplitude statistics (mean) gives the best metric evaluation for most of the toxic agents, while the wavelet analysis, the standard deviation and the skewness in amplitude statistics also contribute to the differentiation between control and exposure signals in some cases.

In experiment [2] the test system is lab-grown Chlamydomonas reinhardtii. Kind of experiment: Toxic agent detection by fluorescence induction, lab-grown Chlamydomonas reinhardtii samples. The experiment is classed as cell-based. The protocol:
as §1, §2, §3, §4

Where “and” joins values, the source holds several entries; their conditions need not be identical. Identical values can stand only once. Like-named read-outs stand apart in the source and are kept apart here.

Here are results for three compounds from patent publication US8476062B2, “Biosensor method and system based on feature vector extraction” (priority 2005, dated 2013).

On to `CN(C)C(=O)Nc1ccc(Cl)c(Cl)c1` [DCMU, Diuron], for which, in experiment [1] (Clinch, 20 μM DCMU), the “Fisher criterion (control vs exposure signals), Amplitude Statistics Kurtosis” value stood at 71.3140; the “Fisher criterion (control vs exposure signals), Amplitude Statistics Mean” value worked out at 356.4241; the “Fisher criterion (control vs exposure signals), Amplitude Statistics Skewness” value amounted to 64.7360; the “Fisher criterion (control vs exposure signals), PSII” value was determined as 62.8073. For the same compound, in experiment [1] (Clinch, 20 μM DCMU), the “Fisher criterion (control vs exposure signals), Wavelet Coefficient Energy” value was 93.8024 and the “Fisher criterion (control vs exposure signals), Wavelet Coefficient Mean” value is recorded as 37.3350. For the same compound, in experiment [2] (Chlamy, 20 μM DCMU), the “Fisher criterion (control vs exposure signals), Amplitude Statistics Kurtosis” value stood at 242.9; the “Fisher criterion (control vs exposure signals), Amplitude Statistics Mean” value is on record as 2111.9; the “Fisher criterion (control vs exposure signals), Amplitude Statistics Skewness” value is recorded as 835.9; the “Fisher criterion (control vs exposure signals), PSII” value is recorded as 63.9. In addition, in experiment [2] (Chlamy, 20 μM DCMU), the “Fisher criterion (control vs exposure signals), Wavelet Coefficient Energy” value was 8.2 and the “Fisher criterion (control vs exposure signals), Wavelet Coefficient Mean” value came to 5.3.
In the case of `COP(=S)(OC)Oc1ccc([N+](=O)[O-])cc1` [MPt, methyl parathion], in experiment [1], the “Fisher criterion (control vs exposure signals), Amplitude Statistics Mean” value was 9.9401 and 5.1574; the “Fisher criterion (control vs exposure signals), Wavelet Coefficient Energy” value is 258.6794 and 159.3636; the “Fisher criterion (control vs exposure signals), Wavelet Coefficient Mean” value is 148.3582 and 75.2339. Besides, in experiment [2], the “Fisher criterion (control vs exposure signals), Amplitude Statistics Mean” value was 15.3435 and 20.3104; the “Fisher criterion (control vs exposure signals), PSII” value was 7.8844 and 11.7760; the “Fisher criterion (control vs exposure signals), Wavelet Coefficient Energy” value was 29.3503 and 29.5307; the “Fisher criterion (control vs exposure signals), Wavelet Coefficient Mean” value was 15.7935 and 22.2547.
Regarding `C[n+]1ccc(-c2cc[n+](C)cc2)cc1` [Paraquat], in experiment [1] (Clinch, 225 μM Paraquat), the “Fisher criterion (control vs exposure signals), Amplitude Statistics Kurtosis” value is reported as 13.0980; the “Fisher criterion (control vs exposure signals), Amplitude Statistics Mean” value turned out to be 0.6992; the “Fisher criterion (control vs exposure signals), Amplitude Statistics Skewness” value came out at 21.8997; the “Fisher criterion (control vs exposure signals), PSII” value was 40.3550. Also, in experiment [1] (Clinch, 225 μM Paraquat), the “Fisher criterion (control vs exposure signals), Wavelet Coefficient Energy” value turned out to be 121.8164 and the “Fisher criterion (control vs exposure signals), Wavelet Coefficient Mean” value is on record as 88.1866. Besides, in experiment [2] (Chlamy, 225 μM Paraquat), the “Fisher criterion (control vs exposure signals), Amplitude Statistics Kurtosis” value came out at 0.5380; the “Fisher criterion (control vs exposure signals), Amplitude Statistics Mean” value turned out to be 9.2416; the “Fisher criterion (control vs exposure signals), Amplitude Statistics Skewness” value is given as 0.1661; the “Fisher criterion (control vs exposure signals), PSII” value is 33.4259. In experiment [2] (Chlamy, 225 μM Paraquat), the “Fisher criterion (control vs exposure signals), Wavelet Coefficient Energy” value came to 15.7150 and the “Fisher criterion (control vs exposure signals), Wavelet Coefficient Mean” value was 7.4516.
